≈ marks a conversion by molar mass, not a printed value.
Assays:
[1] = system: C. albicans ATCC 64124 (strain B); assay: microbe, parasite or virus in culture; type: cell-based, Candida albicans; conditions: strain B; compounds 1-4n and AmB; 48 h, RPMI 1640
Experimental: (§1) Fungal MIC determination experiments were performed using untreated 96-well plates (Corning). Cells were counted either by using a hemocytometer (Hausser Scientific, Horsham, Pa., USA) or by measuring optical density at attenuance of 600 nm (OD600) by using a Genesys 20 spectrophotometer (Thermo Scientific, Waltham, Mass., USA). Spectrophotometric and colorimetric measurements in 96-well plates were performed using a SpectraMax M5 spectrometer (Molecular Devices, Sunnyvale, Calif., USA).
(§2) Yeast strains Candida albicans ATCC 10231 (strain A), C. albicans ATCC 64124 (strain B), and C. albicans ATCC MYA-2876(S) (strain C) were kindly provided by Dr. Jon Y. Takemoto (Utah State University, Logan, UT, USA). C. albicans ATCC MYA-90819(R) (strain D), C. albicans ATCC MYA-2310(S) (strain E), C. albicans ATCC 1237(R) (strain F), C. albicans ATCC MYA-1003(R) (strain G), Candida glabrata ATCC 2001 (strain H), Candida krusei ATCC 6258 (strain I), and Candida parapsilosis ATCC 22019 (strain J) were obtained from the American Type Culture Collection (ATCC, Manassas, Va., USA). The (S) and (R) indicate that ATCC reports these strains to be susceptible (S) and resistant (R) to ITC and FLC. The filamentous fungal strains Aspergillus flavus ATCC MYA-3631 (strain K), and Aspergillus terreus ATCC MYA-3633 (strain M) were also obtained from the American Type Culture Collection (ATCC, Manassas, Va., USA). Aspergillus nidulans ATCC 38163 (strain L) was kindly provided by Dr. Jon S. Thorson (University of Kentucky, Lexington, Ky., USA), respectively. Yeast strains were cultured at 35° C. Filamentous fungal strains were cultured at 25° C. and the spores were harvested. All fungal strains were cultured in RPMI 1640 medium (catalog # R6504, Sigma-Aldrich Chemical Co., St. Louis, Mo.) buffered to pH 7.0 with 0.165 M morpholinepropanesulfonic acid (MOPS) buffer (Sigma-Aldrich Chemical Co.).
(§3) The MIC values against fungal strains were determined based on a previously published protocol. MIC values for ebsulfur (2a) analogues against fungal cells were evaluated in 96-well plates as described in the CLSI document M27-A3 with minor modifications. […] Therefore, potato dextrose broth (PDB) was used to grow the yeast inocula of all strains tested, which were later diluted in RPMI 1640 medium to perform determination of MIC values. […] The tested compounds (10 mg/mL) were diluted to the working stocks (500 μg/mL) by addition of DMSO. Two-fold serial dilution of the working stocks was prepared by addition of RPMI 1640 medium (100 μL) and cell suspension (100 μL) to 96-well microtiter plate to achieve final drug and inoculum concentrations ranging from 12.5-0.02 μg/mL and 5×10^3 CFU/mL, respectively. Plates were incubated for 48 h at 35° C. […]

[2] = system: C. albicans ATCC 90819(R) (strain D); assay: microbe, parasite or virus in culture; type: cell-based, Candida albicans; conditions: strain D; compounds 1-4n and AmB; 48 h, RPMI 1640
Experimental: as §1, §2, §3

[3] = system: C. albicans ATCC MYA-1003(R) (strain G); assay: microbe, parasite or virus in culture; type: cell-based, Candida albicans; conditions: strain G; compounds 1-4n and AmB; 48 h, RPMI 1640
Experimental: as §1, §2, §3

[4] = system: C. albicans ATCC MYA-1237(R) (strain F); assay: microbe, parasite or virus in culture; type: cell-based, Candida albicans; conditions: strain F; compounds 1-4n and AmB; 48 h, RPMI 1640
Experimental: as §1, §2, §3

[5] = system: C. albicans ATCC MYA-2310(S) (strain E); assay: Antifungal MIC determination (CLSI M27-A3, 96-well); type: cell-based, Candida albicans; conditions: strain E; compounds 1-4n and AmB; 48 h, RPMI 1640
Experimental: as §1, §2, §3

[6] = system: C. albicans ATCC MYA-2876(S) (strain C); assay: as above; type: cell-based, Candida albicans; conditions: strain C; compounds 1-4n and AmB; 48 h, RPMI 1640
Experimental: as §1, §2, §3

[7] = system: Candida albicans ATCC 10231 (strain A); assay: as above; type: cell-based; conditions: strain A; compounds 1-4n and AmB; 48 h, RPMI 1640
Experimental: as §1, §2, §3

[8] = system: Candida glabrata ATCC 2001 (strain H); assay: as above; type: cell-based; conditions: strain H; compounds 1-4n and AmB; 48 h, RPMI 1640
Experimental: as §1, §2, §3

[9] = system: Candida krusei ATCC 6258 (strain I); assay: as above; type: cell-based; conditions: strain I; compounds 1-4n and AmB; 48 h, RPMI 1640
Experimental: as §1, §2, §3

[10] = system: Candida parapsilosis ATCC 22019 (strain J); assay: as above; type: cell-based; conditions: strain J; compounds 1-4n and AmB; 48 h, RPMI 1640
Experimental: as §1, §2, §3

[11] = system: Aspergillus flavus ATCC MYA-3631 (strain K); assay: Antifungal MIC determination, filamentous fungi spores; type: cell-based; conditions: all compounds
Experimental: as §1, §2
(§4) The MIC values against fungal strains were determined based on a previously published protocol. MIC values for ebsulfur (2a) analogues against fungal cells were evaluated in 96-well plates as described in the CLSI document M27-A3 with minor modifications. […] Therefore, potato dextrose broth (PDB) was used to grow the yeast inocula of all strains tested, which were later diluted in RPMI 1640 medium to perform determination of MIC values. […] The tested compounds (10 mg/mL) were diluted to the working stocks (500 μg/mL) by addition of DMSO. Two-fold serial dilution of the working stocks was prepared by addition of RPMI 1640 medium (100 μL) and cell suspension (100 μL) to 96-well microtiter plate to achieve final drug and inoculum concentrations ranging from 12.5-0.02 μg/mL and 5×10^3 CFU/mL, respectively. Plates were incubated for 48 h at 35° C.
(§5) MIC assays for the spore-forming filamentous fungi, such as strain A. flavus ATCC MYA-3631 (strain K), were performed in a similar fashion. The filamentous fungal strains were first cultured at 25° C. on potato dextrose agar (PDA) plates for 3-5 days or until confluent. Spores were collected by washing the surface of the agar plates with dd H2O (5 mL) and then isolated the spores by gravity filtration (the spores are H2O soluble). […] Researchers working with spores should wear a facemask to prevent spore inhalation.

[12] = system: Aspergillus nidulans ATCC 38163 (strain L); assay: as above; type: cell-based; conditions: strain L; spores
Experimental: as §1, §2, §4, §5

[13] = system: Aspergillus terreus ATCC MYA-3633 (strain M); assay: as above; type: cell-based; conditions: strain M; all compounds; spores
Experimental: as §1, §2, §4, §5

Candida strains (A-J) = assay: Antifungal MIC, summary over panel of Candida strains; type: cell-based; conditions: Candida strains A-J
Experimental: as §1, §2, §3

`CC(C)Cn1sc2ccccc2c1=O` [Compound 3e] gave an MIC-0 [1] of 1.56 µg/mL (≈ 7.53 µM), an MIC-0 [2] of 0.78 µg/mL (≈ 3.76 µM) and an MIC-0 [3] of 1.56 µg/mL (≈ 7.53 µM). The MIC-0 [4] was 0.78 µg/mL (≈ 3.76 µM), the MIC-0 [5] was 0.78 µg/mL (≈ 3.76 µM) and the MIC-0 [6] was 0.78 µg/mL (≈ 3.76 µM). It also gave an MIC-0 [7] of 0.78 µg/mL (≈ 3.76 µM), an MIC-0 [8] of 1.56 µg/mL (≈ 7.53 µM) and an MIC-0 [9] of 0.39 µg/mL (≈ 1.88 µM). The MIC-0 [10] was 0.78 µg/mL (≈ 3.76 µM), the MIC-0 [11] was 0.20 µg/mL (≈ 0.965 µM) and the MIC-0 [12] was 0.02 µg/mL (≈ 0.0965 µM). For the same molecule, the MIC-0 [13] was 0.10 µg/mL (≈ 0.482 µM).

`CC(C)CCn1sc2ccccc2c1=O` [Compound 3f] was tested, and the MIC-0 [1] was 0.78 µg/mL (≈ 3.52 µM), the MIC-0 [2] was 0.78 µg/mL (≈ 3.52 µM) and the MIC-0 [3] was 1.56 µg/mL (≈ 7.05 µM). For the same molecule, the MIC-0 [4] was 0.78 µg/mL (≈ 3.52 µM), the MIC-0 [5] was 0.78 µg/mL (≈ 3.52 µM) and the MIC-0 [6] was 1.56 µg/mL (≈ 7.05 µM). For the same molecule, the MIC-0 [7] was 1.56 µg/mL (≈ 7.05 µM), the MIC-0 [8] was 1.56 µg/mL (≈ 7.05 µM) and the MIC-0 [9] was 0.39 µg/mL (≈ 1.76 µM). It also gave an MIC-0 [10] of 1.56 µg/mL (≈ 7.05 µM), an MIC-0 [11] of 0.20 µg/mL (≈ 0.904 µM) and an MIC-0 [12] of 0.02 µg/mL (≈ 0.0904 µM). For the same molecule, the MIC-0 [13] was 0.10 µg/mL (≈ 0.452 µM).

Molecule `O=c1c2ccccc2sn1CCc1ccccc1` [Compound 3i] has an MIC-0 [1] of 1.56 µg/mL (≈ 6.11 µM), an MIC-0 [2] of 1.56 µg/mL (≈ 6.11 µM) and an MIC-0 [3] of 1.56 µg/mL (≈ 6.11 µM). It also gave an MIC-0 [4] of 1.56 µg/mL (≈ 6.11 µM), an MIC-0 [5] of 1.56 µg/mL (≈ 6.11 µM) and an MIC-0 [6] of 1.56 µg/mL (≈ 6.11 µM). The MIC-0 [7] was 1.56 µg/mL (≈ 6.11 µM), the MIC-0 [8] was 1.56 µg/mL (≈ 6.11 µM) and the MIC-0 [9] was 1.56 µg/mL (≈ 6.11 µM). For the same molecule, the MIC-0 [10] was 1.56 µg/mL (≈ 6.11 µM), the MIC-0 [11] was 0.78 µg/mL (≈ 3.05 µM) and the MIC-0 [12] was 0.20 µg/mL (≈ 0.783 µM). The MIC-0 [13] was 0.20 µg/mL (≈ 0.783 µM).

`O=c1c2ccccc2sn1CCCc1ccccc1` [Compound 3j] gave an MIC-0 [1] of 3.13 µg/mL (≈ 11.6 µM), an MIC-0 [2] of 3.13 µg/mL (≈ 11.6 µM) and an MIC-0 [3] of 6.25 µg/mL (≈ 23.2 µM). For the same molecule, the MIC-0 [4] was 6.25 µg/mL (≈ 23.2 µM), the MIC-0 [5] was 6.25 µg/mL (≈ 23.2 µM) and the MIC-0 [6] was 6.25 µg/mL (≈ 23.2 µM). The MIC-0 [7] was 6.25 µg/mL (≈ 23.2 µM), the MIC-0 [8] was 1.56 µg/mL (≈ 5.79 µM) and the MIC-0 [9] was 1.56 µg/mL (≈ 5.79 µM). For the same molecule, the MIC-0 [10] was 6.25 µg/mL (≈ 23.2 µM), the MIC-0 [11] was 0.78 µg/mL (≈ 2.9 µM) and the MIC-0 [12] was 0.20 µg/mL (≈ 0.742 µM). The MIC-0 [13] was 0.20 µg/mL (≈ 0.742 µM) and the “MIC values against Candida strains, range” value (Candida strains (A-J)) was 1.56 to 62.5 µg/mL.

`O=c1c2ccccc2sn1C1CCCCCC1` [Compound 3m] gave an MIC-0 [1] of 1.56 µg/mL (≈ 6.31 µM), an MIC-0 [2] of 1.56 µg/mL (≈ 6.31 µM) and an MIC-0 [3] of 3.13 µg/mL (≈ 12.7 µM). For the same molecule, the MIC-0 [4] was 1.56 µg/mL (≈ 6.31 µM), the MIC-0 [5] was 3.13 µg/mL (≈ 12.7 µM) and the MIC-0 [6] was 3.13 µg/mL (≈ 12.7 µM). It also gave an MIC-0 [7] of 1.56 µg/mL (≈ 6.31 µM), an MIC-0 [8] of 3.13 µg/mL (≈ 12.7 µM) and an MIC-0 [9] of 0.39 µg/mL (≈ 1.58 µM). For the same molecule, the MIC-0 [10] was 3.13 µg/mL (≈ 12.7 µM), the MIC-0 [11] was 0.10 µg/mL (≈ 0.404 µM) and the MIC-0 [12] was 0.20 µg/mL (≈ 0.809 µM). For the same molecule, the MIC-0 [13] was 0.20 µg/mL (≈ 0.809 µM).

— patent publication US10544112B2, “Identification of ebsulfur analogues with broad-spectrum antifungal activity” (priority 2017, dated 2020)
